Reference: patent US20260262643A1, “HERBICIDAL BENZOXAZINES” (FMC CORPORATION, priority 2022, published 2026)

How the values were obtained:
[1] = tested on: oat, wild; assay: Test C preemergence; format: in vivo, Avena fatua; conditions: 0 to 100 scale (0 no effect, 100 complete control); for Oat, Wild plant response rating: preemergence
How it was run: (§1)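 Visual injury score, 0–100 (100 = complete control), taken 10 days after treatment relative to untreated controls. Pre: directed spray onto soil over sown seeds. Post: foliar spray at one- to two-leaf stage, 2–10 cm. Solvent/surfactant formulation; loam–sand soil; greenhouse.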

[2] = tested on: soybean; assay: Test C preemergence; format: in vivo, Glycine max; conditions: 0 to 100 scale (0 no effect, 100 complete control); for Soybean plant response rating: preemergence
How it was run: as §1

[3] = tested on: soybean; assay: Test C postemergence; format: in vivo, Glycine max; conditions: 10 days
How it was run: as §1

[4] = tested on: sedge, umbrella; assay: Test D flooded paddy test; format: in vivo, Cyperus difformis; conditions: 250 g ai/ha, applied to paddy water, visual rating after 13 to 14 days, scale 0 to 100 (0 no effect, 100 complete control)
How it was run: (§2)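 Post-flood water application at the 2-leaf stage; 3 cm flood depth kept constant; visual control rating 0–100 after 13–14 days greenhouse growth.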

[5] = tested on: barnyardgrass; assay: Test C postemergence; format: in vivo, Echinochloa crusgalli; conditions: 10 days
How it was run: as §1

[6] = tested on: ducksalad; assay: Test D flooded paddy test; format: in vivo, Heteranthera limosa; conditions: 250 g ai/ha, applied to paddy water, visual rating after 13 to 14 days, scale 0 to 100 (0 no effect, 100 complete control)
How it was run: as §2

[7] = tested on: green foxtail; assay: Test C postemergence; format: in vivo, Setaria viridis; conditions: 10 days
How it was run: as §1

[8] = tested on: barnyardgrass; assay: Test C preemergence; format: in vivo, Echinochloa crusgalli; conditions: 0 to 100 scale (0 no effect, 100 complete control); for Barnyardgrass plant response rating: preemergence
How it was run: as §1

[9] = tested on: rice; assay: Test D flooded paddy test; format: in vivo, Oryza sativa; conditions: 250 g ai/ha, applied to paddy water, visual rating after 13 to 14 days, scale 0 to 100 (0 no effect, 100 complete control)
How it was run: as §2

[10] = tested on: oat, wild; assay: Test C postemergence; format: in vivo, Avena fatua; conditions: 10 days
How it was run: as §1

[11] = tested on: pigweed, palmer; assay: Test C preemergence; format: in vivo, Amaranthus palmeri; conditions: 0 to 100 scale (0 no effect, 100 complete control); for Pigweed, Palmer plant response rating: preemergence
How it was run: as §1

[12] = tested on: galium; assay: Test C postemergence; format: in vivo, Galium aparine; conditions: 10 days
How it was run: as §1

[13] = tested on: corn; assay: Test C postemergence; format: in vivo, Zea mays; conditions: 10 days
How it was run: as §1

[14] = tested on: barnyardgrass; assay: Test D flooded paddy test; format: in vivo, Echinochloa crus-galli; conditions: 250 g ai/ha, applied to paddy water, visual rating after 13 to 14 days, scale 0 to 100 (0 no effect, 100 complete control)
How it was run: as §2

[15] = tested on: green foxtail; assay: Test C preemergence; format: in vivo, Setaria viridis; conditions: 0 to 100 scale (0 no effect, 100 complete control); for Foxtail, Green plant response rating: preemergence
How it was run: as §1

[16] = tested on: wheat; assay: Test C postemergence; format: in vivo, Triticum aestivum; conditions: 10 days
How it was run: as §1

[17] = tested on: horseweed; assay: Test C postemergence; format: in vivo, Erigeron canadensis; conditions: 10 days
How it was run: as §1

[18] = tested on: ragweed; assay: Test C postemergence; format: in vivo, Ambrosia artemisiifolia; conditions: 10 days
How it was run: as §1

[19] = tested on: corn; assay: Test C preemergence; format: in vivo, Zea mays; conditions: 0 to 100 scale (0 no effect, 100 complete control); for Corn plant response rating: preemergence
How it was run: as §1

[20] = tested on: ragweed; assay: Test C preemergence; format: in vivo, Ambrosia artemisiifolia; conditions: 0 to 100 scale (0 no effect, 100 complete control); for Ragweed plant response rating: preemergence
How it was run: as §1

[21] = tested on: kochia; assay: Test C preemergence; format: in vivo, Bassia scoparia; conditions: 0 to 100 scale (0 no effect, 100 complete control); for Kochia plant response rating: preemergence
How it was run: as §1

[22] = tested on: kochia; assay: Test C postemergence; format: in vivo, Bassia scoparia; conditions: 10 days
How it was run: as §1

[23] = tested on: ryegrass, Italian; assay: Test C postemergence; format: in vivo, Lolium multiflorum; conditions: 10 days
How it was run: as §1

[24] = tested on: pigweed, palmer; assay: Test C postemergence; format: in vivo, Amaranthus palmeri; conditions: 10 days
How it was run: as §1

[25] = tested on: wheat; assay: Test C preemergence; format: in vivo, Triticum aestivum; conditions: 0 to 100 scale (0 no effect, 100 complete control); for Wheat plant response rating: preemergence
How it was run: as §1

[26] = tested on: blackgrass; assay: Test C postemergence; format: in vivo, Alopecurus myosuroides; conditions: 10 days
How it was run: as §1

[27] = tested on: blackgrass; assay: Test C preemergence; format: in vivo, Alopecurus myosuroides; conditions: 0 to 100 scale (0 no effect, 100 complete control); for Blackgrass plant response rating: preemergence
How it was run: as §1

[28] = tested on: ryegrass, Italian; assay: Test C preemergence; format: in vivo, Lolium multiflorum; conditions: 0 to 100 scale (0 no effect, 100 complete control); for Ryegrass, Italian plant response rating: preemergence
How it was run: as §1

[29] = Preemergence, 500 g ai/ha, visual rating after 10 days
[30] = 125 g ai/ha, postemergence, 0 to 100 scale, 0 no effect, 100 complete control
[31] = Postemergence, 500 g ai/ha, visual 0 to 100 scale (0 no effect, 100 complete control)
[32] = 500 g ai/ha, postemergence, 0 to 100 scale (0 no effect, 100 complete control)
[33] = Postemergence, 125 g ai/ha, 0 to 100 scale (0 no effect, 100 complete control)

Compound: CC(C)n1cnc(-c2cccc(C(=O)N3C[C@H](C)Oc4c(Cl)cccc43)c2)n1 [Compound 172]
- Plant response rating, Oat, Wild [1, 29]: 0
- Oat, Wild plant response rating ([1]; Test C, 125 g ai/ha): 0
- Plant response rating, Soybean [2, 29]: 0
- Soybean plant response rating ([2]; Test C, 125 g ai/ha): 0
- Plant response rating, Soybean [3, 30]: 0
- Plant response rating, Soybean [3, 31]: 0
- Plant response rating, Sedge, Umbrella (Flood) [4]: 0
- Plant response rating, Barnyardgrass [5, 30]: 0
- Plant response rating, Barnyardgrass [5, 31]: 0
- Plant response rating, Ducksalad (Flood) [6]: 0
- Plant response rating, Foxtail, Green [7, 30]: 0
- Plant response rating, Foxtail, Green [7, 31]: 0
- Plant response rating, Barnyardgrass [8, 29]: 0
- Barnyardgrass plant response rating ([8]; Test C, 125 g ai/ha): 0
- Plant response rating, Rice (Flood) [9]: 0
- Plant response rating, Oat, Wild [10, 30]: 0
- Plant response rating, Oat, Wild [10, 31]: 0
- Plant response rating, Pigweed, Palmer [11, 29]: 0
- Pigweed, Palmer plant response rating ([11]; Test C, 125 g ai/ha): 0
- Plant response rating, Galium [12, 30]: 0
- Plant response rating, Galium [12, 31]: 0
- Plant response rating, Corn [13, 30]: 0
- Plant response rating, Corn [13, 31]: 0
- Plant response rating, Barnyardgrass (Flood) [14]: 0
- Plant response rating, Foxtail, Green [15, 29]: 0
- Foxtail, Green plant response rating ([15]; Test C, 125 g ai/ha): 0
- Plant response rating, Wheat [16, 30]: 0
- Plant response rating, Wheat [16, 31]: 0
- Plant response rating, Horseweed [17, 30]: 0
- Plant response rating, Horseweed [17, 31]: 0
- Plant response rating, Ragweed [18, 30]: 0
- Plant response rating, Ragweed [18, 31]: 0
- Plant response rating, Corn [19, 29]: 0
- Corn plant response rating ([19]; Test C, 125 g ai/ha): 0
- Plant response rating, Ragweed [20, 29]: 0
- Ragweed plant response rating ([20]; Test C, 125 g ai/ha): 0
- Plant response rating, Kochia [21, 29]: 0
- Kochia plant response rating ([21]; Test C, 125 g ai/ha): 0
- Plant response rating, Kochia [22, 30]: 0
- Plant response rating, Kochia [22, 31]: 30
- Plant response rating, Ryegrass, Italian [23, 30]: 0
- Plant response rating, Ryegrass, Italian [23, 31]: 0
- Plant response rating, Pigweed, Palmer [24, 30]: 0
- Plant response rating, Pigweed, Palmer [24, 31]: 0
- Plant response rating, Wheat [25, 29]: 0
- Wheat plant response rating ([25]; Test C, 125 g ai/ha): 0
- Plant response rating, Blackgrass [26, 30]: 0
- Plant response rating, Blackgrass [26, 31]: 0
- Plant response rating, Blackgrass [27, 29]: 0
- Blackgrass plant response rating ([27]; Test C, 125 g ai/ha): 0
- Plant response rating, Ryegrass, Italian [28, 29]: 20
- Ryegrass, Italian plant response rating ([28]; Test C, 125 g ai/ha): 0

Compound: Cc1cccc2c1OC(C(F)(F)F)CN2C(=O)c1cccc(-n2cnc(C(C)C)n2)c1 (single isomer, unassigned) [Compound 303]
- Oat, Wild plant response rating ([1]; 500 g ai/ha): 90
- Oat, Wild plant response rating ([1]; Test C, 125 g ai/ha): 50
- Soybean plant response rating ([2]; 500 g ai/ha): 100
- Soybean plant response rating ([2]; Test C, 125 g ai/ha): 30
- Plant response rating, Soybean [3, 32]: 100
- Plant response rating, Soybean [3, 33]: 100
- Plant response rating, Sedge, Umbrella (Flood) [4]: 90
- Plant response rating, Barnyardgrass [5, 32]: 70
- Plant response rating, Barnyardgrass [5, 33]: 20
- Plant response rating, Ducksalad (Flood) [6]: 80
- Plant response rating, Foxtail, Green [7, 32]: 80
- Plant response rating, Foxtail, Green [7, 33]: 50
- Barnyardgrass plant response rating ([8]; 500 g ai/ha): 100
- Barnyardgrass plant response rating ([8]; Test C, 125 g ai/ha): 40
- Plant response rating, Rice (Flood) [9]: 0
- Plant response rating, Oat, Wild [10, 32]: 70
- Plant response rating, Oat, Wild [10, 33]: 50
- Pigweed, Palmer plant response rating ([11]; 500 g ai/ha): 100
- Pigweed, Palmer plant response rating ([11]; Test C, 125 g ai/ha): 100
- Plant response rating, Galium [12, 32]: 100
- Plant response rating, Galium [12, 33]: 100
- Plant response rating, Corn [13, 32]: 80
- Plant response rating, Corn [13, 33]: 20
- Plant response rating, Barnyardgrass (Flood) [14]: 0
- Foxtail, Green plant response rating ([15]; 500 g ai/ha): 100
- Foxtail, Green plant response rating ([15]; Test C, 125 g ai/ha): 100
- Plant response rating, Wheat [16, 32]: 50
- Plant response rating, Wheat [16, 33]: 30
- Plant response rating, Horseweed [17, 32]: 20
- Plant response rating, Horseweed [17, 33]: 0
- Plant response rating, Ragweed [18, 32]: 60
- Plant response rating, Ragweed [18, 33]: 50
- Corn plant response rating ([19]; 500 g ai/ha): 50
- Corn plant response rating ([19]; Test C, 125 g ai/ha): 0
- Ragweed plant response rating ([20]; 500 g ai/ha): 70
- Ragweed plant response rating ([20]; Test C, 125 g ai/ha): 0
- Kochia plant response rating ([21]; 500 g ai/ha): 100
- Kochia plant response rating ([21]; Test C, 125 g ai/ha): 70
- Plant response rating, Kochia [22, 32]: 80
- Plant response rating, Kochia [22, 33]: 70
- Plant response rating, Ryegrass, Italian [23, 32]: 90
- Plant response rating, Ryegrass, Italian [23, 33]: 60
- Plant response rating, Pigweed, Palmer [24, 32]: 80
- Plant response rating, Pigweed, Palmer [24, 33]: 40
- Wheat plant response rating ([25]; 500 g ai/ha): 100
- Wheat plant response rating ([25]; Test C, 125 g ai/ha): 70
- Plant response rating, Blackgrass [26, 32]: 100
- Plant response rating, Blackgrass [26, 33]: 90
- Blackgrass plant response rating ([27]; 500 g ai/ha): 100
- Blackgrass plant response rating ([27]; Test C, 125 g ai/ha): 90
- Ryegrass, Italian plant response rating ([28]; 500 g ai/ha): 100
- Ryegrass, Italian plant response rating ([28]; Test C, 125 g ai/ha): 90
